Laboratory results from patent US12486302B2, “Somatostatin receptor antagonist compounds and methods of using the same” (CDRD VENTURES INC., priority 2016, dated 2025).
*1 amine or outer side, *2 acyl side, *3 side chain or, on linkers, in order; H or OH if unused. Where a SMILES comes first, the peptide text is derived from it. Bridges are numbered along the chain shown (N, C = ends). Triazole bridges read from a SMILES are 1,4-linked. [ ]: non-standard residue; d: D form. The star is where a group is joined. ξ: configuration not given here. dPhe(4-CONH2) = NC(=O)c1ccc(C[C@@H](N)C(=O)O)cc1; NMePhe(4-Cl) = CN[C@@H](Cc1ccc(Cl)cc1)C(=O)O; Phe(4-Cl) = N[C@@H](Cc1ccc(Cl)cc1)C(=O)O; dDap(N3) = [N-]=[N+]=NC[C@@H](N)C(=O)O; Dap(N3) = [N-]=[N+]=NC[C@H](N)C(=O)O; NMeY = CN[C@@H](Cc1ccc(O)cc1)C(=O)O; dNMeY = CN[C@H](Cc1ccc(O)cc1)C(=O)O; Lys(Me2) = CN(C)CCCC[C@H](N)C(=O)O; NMeT = CN[C@H](C(=O)O)[C@@H](C)O; Lys(Me) = CNCCCC[C@H](N)C(=O)O; Thr(3ξ) = CC(O)[C@H](N)C(=O)O; ξY = NC(Cc1ccc(O)cc1)C(=O)O; dPra = C#CC[C@@H](N)C(=O)O; Pra = C#CC[C@H](N)C(=O)O; ξF = NC(Cc1ccccc1)C(=O)O; 2Furoyl = O=C(c1ccco1)*; Dap = NC[C@H](N)C(=O)O; Hexanoyl = CCCCCC(=O)*; CO = O=C([*:1])[*:2]

Target: somatostatin type 2 (SSTR2) receptors (Homo sapiens, UniProt P30874)
Sequence (P30874 whole entry): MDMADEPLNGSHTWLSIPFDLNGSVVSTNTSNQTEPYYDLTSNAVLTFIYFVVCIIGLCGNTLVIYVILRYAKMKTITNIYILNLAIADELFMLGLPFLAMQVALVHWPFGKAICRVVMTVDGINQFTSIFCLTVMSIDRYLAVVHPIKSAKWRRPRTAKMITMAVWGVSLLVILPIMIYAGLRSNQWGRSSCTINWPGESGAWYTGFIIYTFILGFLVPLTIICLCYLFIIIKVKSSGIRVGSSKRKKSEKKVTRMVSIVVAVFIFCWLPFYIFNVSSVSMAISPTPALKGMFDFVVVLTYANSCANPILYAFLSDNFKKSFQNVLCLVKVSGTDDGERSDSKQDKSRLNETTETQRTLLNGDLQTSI
Assay: PathHunter β-Arrestin assay, antagonist mode, SSTR2
Assay type: cell-based
Conditions: agonist challenge at EC80
Description: The PathHunter® β-Arrestin assay monitors the activation of a GPCR in a homogenous, non-imaging assay format using a technology developed by DiscoveRx called Enzyme Fragment Complementation (EFC) with β-galactosidase (β-Gal) as the functional reporter. […] EA is fused to β-Arrestin and […] is fused to the GPCR of interest. When the GPCR is activated and β-Arrestin is recruited to the receptor, ED and EA complementation occurs, restoring β-Gal activity which is measured using chemiluminescent PathHunter® Detection Reagents. For antagonist determination, cells were pre-incubated with the compounds followed by agonist challenge at the EC80 concentration. Data was normalized to the maximal and minimal response observed in the presence of EC80 ligand and vehicle. Compound activity was analyzed using CBIS data analysis suite ChemInnovation, CA). Percentage inhibition was calculated using the following formula: % Inhibition=100%×(1−(mean signal of test sample-mean signal of vehicle control)/(mean signal of EC80 control-mean signal of vehicle control)). Percentage inhibition was calculated at 10 concentrations in steps on a Log 3 scale ranging from […] to 5e-5 μM. The results were plotted for IC50 calculation.

Compared with `C[C@@H](O)[C@@H]1NC(=O)[C@H](CCCCN(C)C)NC(=O)[C@@H](Cc2ccc(C(N)=O)cc2)NC(=O)[C@H](Cc2ccc(O)cc2)NC(=O)[C@H](NC(=O)[C@@H](N)Cc2ccc(Cl)cc2)CSSC[C@@H](C(=O)NC(Cc2ccc(O)cc2)C(N)=O)NC1=O` (stereo partly drawn) [Compound 32, H-Cpa-cyclo[D-Cys-Tyr-D-Phe(4-carbamoyl)-Lys(N^ε-diMe)-Thr-Cys]-D-Tyr-NH2] (H-[Phe(4-Cl)][dC]Y[dPhe(4-CONH2)][Lys(Me2)]TC[ξY]-NH2; disulfide 2-7), `CC(C)[C@@H]1NC(=O)[C@H](CCCCN)NC(=O)[C@@H](Cc2ccc(C(N)=O)cc2)NC(=O)[C@H](Cc2ccc(O)cc2)NC(=O)[C@H](NC(=O)[C@@H](N)Cc2ccc(Cl)cc2)CSSC[C@@H](C(=O)NC(Cc2ccc(O)cc2)C(N)=O)NC1=O` (stereo partly drawn) [Compound 33, H-Cpa-cyclo[DCys- Tyr-D-4- (carbamoyl)Phe-Lys- Val-Cys]-DTyr-NH2] (H-[Phe(4-Cl)][dC]Y[dPhe(4-CONH2)]KVC[ξY]-NH2; disulfide 2-7) is 23-fold higher in IC50: 2.46 nM for the first, 56 nM for the second. The first is the more potent here.

`C[C@@H](O)[C@@H]1NC(=O)[C@H](CCCCN)NC(=O)[C@@H](Cc2ccc(C(N)=O)cc2)NC(=O)[C@H](Cc2ccc(O)cc2)NC(=O)[C@H](NC(=O)[C@@H](N)Cc2ccc(Cl)cc2)Cc2cn(nn2)C[C@@H](C(=O)N[C@H](Cc2ccc(O)cc2)C(N)=O)NC1=O` [Compound 66] (H-[Phe(4-Cl)][dPra]Y[dPhe(4-CONH2)]KT[Dap(N3)][dY]-NH2; triazole 2-7) and `C[C@@H](O)[C@@H]1NC(=O)[C@H](CCCCN)NC(=O)[C@@H](Cc2ccc(C(N)=O)cc2)NC(=O)[C@H](Cc2ccc(O)cc2)NC(=O)[C@H](NC(=O)[C@@H](N)Cc2ccc(Cl)cc2)Cn2cc(nn2)C[C@@H](C(=O)N[C@H](Cc2ccc(O)cc2)C(N)=O)NC1=O` [Compound 64] (H-[Phe(4-Cl)][dDap(N3)]Y[dPhe(4-CONH2)]KT[Pra][dY]-NH2; triazole 2-7) cannot be ordered by IC50: > 1000 nM for the first, > 1000 nM for the second.

Going from `CNCCCC[C@@H]1NC(=O)[C@@H](Cc2ccc(C(N)=O)cc2)NC(=O)[C@H](Cc2ccc(O)cc2)NC(=O)[C@H](NC(=O)[C@H](Cc2ccc(Cl)cc2)NC(=O)CNC(C)=O)CSSC[C@@H](C(=O)N[C@H](Cc2ccc(O)cc2)C(N)=O)NC(=O)[C@H]([C@@H](C)O)NC1=O` [Compound 55, Ac-Gly-Cpa-cyclo[D-Cys-Tyr-D-Phe(4-carbamoyl)-Lys(N^ε-Me)-Thr-Cys]-D-Tyr-NH2] (Ac-G[Phe(4-Cl)][dC]Y[dPhe(4-CONH2)][Lys(Me)]TC[dY]-NH2; disulfide 3-8) to `CCCCCC(=O)N[C@@H](Cc1ccc(Cl)cc1)C(=O)N[C@@H]1CSSC[C@@H](C(=O)N[C@H](Cc2ccc(O)cc2)C(N)=O)NC(=O)[C@H]([C@@H](C)O)NC(=O)[C@H](CCCCNC)NC(=O)[C@@H](Cc2ccc(C(N)=O)cc2)NC(=O)[C@H](Cc2ccc(O)cc2)NC1=O` [Compound 56, CH3(CH2)4(CO)-Cpa-cyclo[D-Cys-Tyr-D-Phe(4-carbamoyl)-Lys(N^ε-Me)-Thr-Cys]-D-Tyr-NH2] (Hexanoyl-[Phe(4-Cl)][dC]Y[dPhe(4-CONH2)][Lys(Me)]TC[dY]-NH2; disulfide 2-7), the IC50 falls from 3.35 nM to 1.6 nM (2.1-fold).

Going from `COc1ccc(C[C@@H]2NC(=O)[C@H](NC(=O)[C@@H](N)Cc3ccc(Cl)cc3)CSSC[C@@H](C(=O)NC(Cc3ccc(O)cc3)C(N)=O)NC(=O)[C@H]([C@@H](C)O)NC(=O)[C@H](CCCCN)NC(=O)[C@@H](Cc3ccc(C(N)=O)cc3)NC2=O)cc1` (stereo partly drawn) [Compound 38, H-Cpa-cyclo[DCys- 4-OMe-Phe-D-(4- carbamoyl)Phe-Lys- Thr-Cys]-DTyr-NH2] (H-[Phe(4-Cl)][dC]Y(Me)[dPhe(4-CONH2)]KTC[ξY]-NH2; disulfide 2-7) to `C[C@@H](O)[C@@H]1NC(=O)[C@H](CCCCN)NC(=O)[C@@H](Cc2ccc(C(N)=O)cc2)NC(=O)[C@H](Cc2ccc(O)cc2)NC(=O)[C@H](NC(=O)[C@@H](N)Cc2ccc(Cl)cc2)CSSC[C@@H](C(=O)NC(Cc2ccccc2)C(N)=O)NC1=O` (stereo partly drawn) [Compound 40, H-Cpa-cyclo[DCys- Tyr-D-(4- carbamoyl)Phe-Lys- Thr-Cys]-DPhe-NH2] (H-[Phe(4-Cl)][dC]Y[dPhe(4-CONH2)]KTC[ξF]-NH2; disulfide 2-7), the IC50 falls from 24.4 nM to 16.2 nM (1.5-fold). The second is the more potent here.

`CN[C@@H](Cc1ccc(Cl)cc1)C(=O)N[C@@H]1CSSC[C@@H](C(=O)N(C)[C@H](Cc2ccc(O)cc2)C(N)=O)NC(=O)[C@H]([C@@H](C)O)N(C)C(=O)[C@H](CCCCN)NC(=O)[C@@H](Cc2ccc(C(N)=O)cc2)NC(=O)[C@H](Cc2ccc(O)cc2)N(C)C1=O` [Compound 80, H-NMeCpa-[DCys-NMeTyr-DPhe(4-carbamoyl)-Lys-NMeThr-Cys]-NMeTyr-NH2] (H-[NMePhe(4-Cl)][dC][NMeY][dPhe(4-CONH2)]K[NMeT]C[dNMeY]-NH2; disulfide 2-7) and `C[C@@H](O)[C@H]1C(=O)N[C@H](C(=O)N[C@H](Cc2ccc(O)cc2)C(N)=O)CSSC[C@@H](NC(=O)[C@@H](N)Cc2ccc(Cl)cc2)C(=O)N(C)[C@@H](Cc2ccc(O)cc2)C(=O)N[C@H](Cc2ccc(C(N)=O)cc2)C(=O)N[C@@H](CCCCN)C(=O)N1C` [Compound 75, H-Cpa-[DCys-NMeTyr-DPhe(4-carbamoyl)-Lys-NMeThr-Cys]-DTyr-NH2] (H-[Phe(4-Cl)][dC][NMeY][dPhe(4-CONH2)]K[NMeT]C[dY]-NH2; disulfide 2-7) cannot be ordered by IC50: > 1000 nM for the first, > 1000 nM for the second.

Going from `NCCCC[C@@H]1NC(=O)[C@@H](Cc2ccc(C(N)=O)cc2)NC(=O)[C@H](Cc2ccc(O)cc2)NC(=O)[C@H](NC(=O)[C@@H](N)Cc2ccc(Cl)cc2)CSSC[C@@H](C(=O)NC(Cc2ccc(O)cc2)C(N)=O)NC(=O)[C@H](CO)NC1=O` (stereo partly drawn) [Compound 37, H-Cpa-cyclo[DCys- Tyr-D-(4- carbamoyl)Phe-Lys- Ser-Cys]-DTyr-NH2] (H-[Phe(4-Cl)][dC]Y[dPhe(4-CONH2)]KSC[ξY]-NH2; disulfide 2-7) to `C[C@@H](O)[C@H]1C(=O)N[C@H](C(=O)N[C@H](Cc2ccc(O)cc2)C(N)=O)CSSC[C@@H](NC(=O)[C@@H](N)Cc2ccc(Cl)cc2)C(=O)N[C@@H](Cc2ccc(O)cc2)C(=O)N[C@H](Cc2ccc(C(N)=O)cc2)C(=O)N[C@@H](CCCCN)C(=O)N1C` [Compound 73, H-Cpa-[DCys-Tyr- DPhe(4-carbamoyl)- Lys-NMeThr- Cys]-DTyr-NH2] (H-[Phe(4-Cl)][dC]Y[dPhe(4-CONH2)]K[NMeT]C[dY]-NH2; disulfide 2-7), the IC50 rises from 10.6 nM to 547 nM (52-fold).

First: CNCCCC[C@@H]1NC(=O)[C@@H](Cc2ccc(C(N)=O)cc2)NC(=O)[C@H](Cc2ccc(O)cc2)NC(=O)[C@H](NC(=O)[C@H](Cc2ccc(Cl)cc2)NC(=O)c2ccco2)CSSC[C@@H](C(=O)N[C@H](Cc2ccc(O)cc2)C(N)=O)NC(=O)[C@H]([C@@H](C)O)NC1=O [Compound 57, (Furan-2-carboxy)-Cpa-cyclo[D-Cys-Tyr-D-Phe(4-carbamoyl)-Lys(N^ε-Me)-Thr-Cys]-D-Tyr-NH2] (2Furoyl-[Phe(4-Cl)][dC]Y[dPhe(4-CONH2)][Lys(Me)]TC[dY]-NH2; disulfide 2-7)
Second: CC(O)[C@@H]1NC(=O)[C@H](CCCCN)NC(=O)[C@@H](Cc2ccc(C(N)=O)cc2)NC(=O)[C@H](Cc2ccc(O)cc2)NC(=O)[C@H](NC(=O)[C@@H](N)Cc2ccc(Cl)cc2)CSC(=O)NC[C@@H](C(=O)N[C@H](Cc2ccc(O)cc2)C(N)=O)NC1=O (stereo partly drawn) [Compound 62, H-Cpa-cyclo[DCys- Tyr-DPhe(4- CONH2)- Lys-Thr-Dap]- DTyr-NH2] (H-[Phe(4-Cl)][dC]Y[dPhe(4-CONH2)]K[Thr(3ξ)][Dap][dY]-NH2; linker 2-7 via CO)
The IC50 of the first is lower: 3.65 nM for the first, > 1000 nM for the second. The first is the more potent here.
